Data published in patent EP4722195A1, “PH-SENSITIVE CATIONIC LIPID AND LIPID NANOPARTICLES” (National University Corporation Hokkaido University, priority 2023, dated 2024).
Read-outs that look alike come from different tables or passages of the source.

What was measured:
[1] = Average particle size and polydispersity index of lipid nanoparticles (dynamic light scattering); type: physicochemical
Method: (§1) The average particle size (number average value), ζ-average particle size, and polydispersity index (PdI) of the lipid nanoparticles in PBS(-) (pH 7.4), and the zeta potential in 10 mM HEPES buffer (pH 7.4) were measured using an analyzer "Zetasizer Nano ZS ZEN3600" (manufactured by Malvern) utilizing dynamic light scattering.

[2] = Zeta potential of lipid nanoparticles; type: physicochemical
Method: as §1

[3] = Encapsulation rate of lipid nanoparticles (Ribogreen); type: physicochemical
Method: The encapsulation rate of the lipid nanoparticles was determined by measuring the amount of encapsulated nucleic acid (mRNA) using Ribogreen (manufactured by Life Technologies), which is an RNA intercalator. The mRNA amount was quantified based on a calibration curve prepared from a series of diluted mRNA solutions at known concentrations.
Specifically, 10 mM HEPES buffer (pH 7.4), 10 w/v% Triton X-100, and Ribogreen were mixed at 978.8 µL, 20 µL, and 1.25 µL per 10 wells, respectively, to obtain a Triton(+) buffer. A Triton(-) buffer was obtained in replacing Triton X-100 with 10 mM HEPES buffer (pH 7.4). 100 µL/well of the sample was added to a black 96-well plate for fluorescence measurement, and 100 µL/well of Triton(+) buffer or Triton(-) buffer was added. After the plate was gently shaken on a shaking incubator (SI-300, manufactured by AS ONE) (700 rpm, 30 seconds), the fluorescence intensity of each well was measured using a microplate reader (VARIOSKAN LUX, manufactured by Thermo Fisher Scientific) (wavelength Ex/Em=500 nm/525 nm), and the nucleic acid encapsulation rate (%) was calculated.

spleen = assay: Fluc activity in the spleen of mice administered Fluc mRNA-loaded lipid nanoparticles; type: in vivo, BALB/c mice; settings: Example 22, Fig. 1; TxT/DSPC/chol/PEG-DMG=50/15/35/1.5 (mol%); 0.1 mg mRNA/kg intravenous; six hours after administration; comparison among TxT lipids
Method: (§2) Lipid nanoparticles were administered to mice by intravenous injection into the tail vein using a 27G needle. Unless otherwise specified, BALB/c mice (4 to 5 weeks old, female) were used.
(§3) First, BALB/c mice (female, 4 weeks old) were intravenously injected with lipid nanoparticles encapsulating Fluc mRNA (Fluc mRNA-loaded lipid nanoparticles) at a dose of 0.1 mg mRNA/kg. Six hours after intravenous injection, the mice were euthanized, each tissue was collected, frozen in liquid nitrogen, and stored at -80°C. The tissues were homogenized in passive lysis buffer (manufactured by Promega) using a bead-type cell disruptor (Micro Smash MS-100R, manufactured by TOMY Seiko). Tissue debris was removed by centrifugation, and the supernatant was collected. Fluc activity in the supernatant was measured using the Luciferase Assay System (E1500, manufactured by Promega) according to the manufacturer's protocol. Luminescence was measured using a luminometer (Luminescencer-PSN, manufactured by ATTO). Protein concentration was determined using a commercially available assay kit (BCA Protein Assay Kit, manufactured by Pierce). Fluc activity was expressed as relative light units (RLU) per mg of protein. […]

liver [4] = assay: EGFP expression in liver tissue sections of mice administered EGFP mRNA-loaded lipid nanoparticles (confocal microscopy); type: in vivo, Balb/c mice; settings: Example 27, Fig. 6; EGFP mRNA-loaded lipid nanoparticles TxT/DSPC/chol/PEG-DMG=50/3/47/1.5 (mol%); 24 hours post-administration
Method: Subsequently, each EGFP mRNA-loaded lipid nanoparticle was administered to Balb/c mice at a dose of 0.2 mg mRNA/kg. At 23 hours and 50 minutes post-administration, fluorescently labeled lectin (DyLight-649 Lycopersicon (Tomato) Lectin) was intravenously injected via the tail vein at 40 µg/mouse to fluorescently label vascular endothelial cells. At 24 hours after administration of the lipid nanoparticles, the mice were euthanized, and their livers were collected to prepare tissue sections. For nuclear staining, the tissue sections were immersed in a nuclear staining solution (1 µg/mL Hoechst 33342 dissolved in PBS(-)), cooled on ice, and incubated for at least 30 minutes in the dark. The stained tissue sections were then observed using a confocal laser scanning microscope. Subsequently, in the same manner as Example 26, each EGFP mRNA-loaded lipid nanoparticle was administered to Balb/c mice. At 23 hours and 50 minutes post-administration, fluorescently labeled lectin was administered. At 24 hours after administration of the lipid nanoparticles, the mice were euthanized, and their livers were collected to prepare tissue sections. Each tissue section was observed using a confocal laser scanning microscope. In the figure, the upper panels show fluorescence images of EGFP, and the lower panels show fluorescence images of vascular endothelial cells (fluorescently labeled lectin).

[5] = Apparent pKa of lipid nanoparticles (TNS)
Method: (§4) The apparent pKa of the lipid nanoparticles was measured using p-toluenesulfonic acid (TNS). First, TNS (final concentration: 0.75 µM) and lipid nanoparticles (final concentration: 30 µM) were mixed in a buffer (200 mL) adjusted to each pH (pH 3.5 to 9.5). As the buffer, 20 mM citrate buffer, 20 mM sodium phosphate buffer, or 20 mM Tris-HCl buffer containing 130 mM NaCl was used. The fluorescence intensity of the prepared mixture was measured using a fluorescence spectrophotometer (Varioskan Lux, manufactured by Thermo Fisher Scientific) with the settings of λex=321 nm and λem=447 nm. Among the measured values, the highest value and the lowest value were set as 100% and 0% ionization degrees, respectively, and the pH showing a 50% ionization degree was calculated as the apparent pKa. The content ratio (%) of cationically charged pH-sensitive cationic lipid was calculated using the Henderson-Hasselbalch equation.

liver [6] = assay: Fluc activity in the liver of mice administered Fluc mRNA-loaded lipid nanoparticles; type: in vivo, BALB/c mice; settings: Example 31, Fig. 10; Fluc mRNA-loaded lipid nanoparticles containing 3 mol% DSPC; N = 3
Method: as §2
First, BALB/c mice (female, 4 weeks old) were intravenously injected with lipid nanoparticles encapsulating Fluc mRNA (Fluc mRNA-loaded lipid nanoparticles) at a dose of 0.1 mg mRNA/kg. Six hours after intravenous injection, the mice were euthanized, each tissue was collected, frozen in liquid nitrogen, and stored at -80°C. The tissues were homogenized in passive lysis buffer (manufactured by Promega) using a bead-type cell disruptor (Micro Smash MS-100R, manufactured by TOMY Seiko). Tissue debris was removed by centrifugation, and the supernatant was collected. Fluc activity in the supernatant was measured using the Luciferase Assay System (E1500, manufactured by Promega) according to the manufacturer's protocol. Luminescence was measured using a luminometer (Luminescencer-PSN, manufactured by ATTO). Protein concentration was determined using a commercially available assay kit (BCA Protein Assay Kit, manufactured by Pierce). Fluc activity was expressed as relative light units (RLU) per mg of protein.
Subsequently, lipid nanoparticles encapsulating Fluc mRNA prepared using TxT-5-5A10, TxT-5-5A12, TxT-5-5A12β, TxT-5-5A14, and TxT-5-5A16 were administered to mice to evaluate luciferase expression levels (Fluc activity) in various tissues. Specifically, each Fluc mRNA-loaded lipid nanoparticle was administered to Balb/c mice at a dose of 0.1 mg mRNA/kg. Six hours after administration, the mice were euthanized, and their organs were collected to measure Fluc activity (RLU/mg protein) (N = 2 or 4).

various tissues = assay: Fluc activity in various tissues of mice administered Fluc mRNA-loaded lipid nanoparticles; type: in vivo, BALB/c mice; settings: Example 31, Fig. 10; Fluc mRNA-loaded lipid nanoparticles containing 3 mol% DSPC; N = 3
Method: as §2, §3

factor VII (F7) = settings: mouse liver; siRNA; cited from earlier work
[7] = lipid nanoparticles, tns
Method: as §4

[8] = Table 1, Fluc mRNA-loaded lipid nanoparticles, TxT/DSPC/chol/PEG-DMG=50/15/35/1.5 (mol%)
[9] = Table 3, Fluc mRNA-loaded lipid nanoparticles, TxT/DSPC/chol/PEG-DMG=50/3/47/1.5 (mol%)
[10] = Table 5, EGFP mRNA-loaded lipid nanoparticles, TxT/DSPC/chol/PEG-DMG=50/3/47/1.5 (mol%), total flow rate 3.0 mL/min
[11] = Table 4, Fluc mRNA-loaded lipid nanoparticles, TxT-5-5A14/DSPC/chol/PEG-DMG=50/3/47/1.5, SM-102, ALC-0315 or MC3/DSPC/chol/PEG-DMG=50/10/40/1.5 (mol%)
[12] = Table 8 (Example 32), lipid nanoparticles for TTR-targeted genome editing, Cas9-mRNA and TTR-gRNA 1:2 (N/P = 6.0), TxT/DSPC/chol/PEG-DMG = 50/3/47/1.5 (mol%)

For `CCCCCCN(CCCCCC)C(=O)CCCC(=O)OCC(COC(=O)CCCC(=O)N(CCCCCC)CCCCCC)(COC(=O)CCCC(=O)N(CCCCCC)CCCCCC)NC(=O)CCN1CCCCC1` [TxT-5-5A12, 2-(((5-(dihexylamino)-5-oxopentanoyl)oxy)methyl)-2-(3-(piperidin-1-yl)propanamido)propane-1,3-diyl bis(5-(dihexylamino)-5-oxopentanoate)], the Pdl [1, 8] was 0.08, the “number average particle size” value [1, 8] was 124.5 nm and the ζ-average particle size [1, 8] was 155.2 nm. The Pdl [1, 9] was 0.10, the “number average particle size” value [1, 9] was 124.5 nm and the ζ-average particle size [1, 9] was 155.2 nm. The Pdl [1, 10] was 0.13, the “number average particle size” value [1, 10] was 80.2 nm and the ζ-average particle size [1, 10] was 114.4 nm. For the same compound, the ζ-potential [2, 8] was -6.7 mV, the ζ-potential [2, 9] was -6.7 mV and the ζ-potential [2, 10] was -9.4 mV. For the same compound, the mRNA concentration [3, 8] was 0.019 µg/µL, the mRNA encapsulation rate [3, 8] was 85.9% and the mRNA concentration [3, 9] was 0.019 µg/µL. For the same compound, the mRNA encapsulation rate [3, 9] was 85.9%, the mRNA concentration [3, 10] was 0.019 µg/µL and the mRNA encapsulation rate [3, 10] was 95.5%. For the same compound, the “Fluc activity in the spleen” value (spleen) was “highest Fluc activity in the spleen”, the “fluorescence of EGFP in the liver tissues” value (liver [4]) was “fluorescence of EGFP was observed” and the pKa ([5]; Table 1, apparent pKa of Fluc mRNA-loaded lipid nanoparticles, TxT/DSPC/chol/PEG-DMG=50/15/35/1.5 (mol%)) was 6.44. The pKa [5, 9] was 6.58.

In the case of “2-((2-(2-((diheptylamino)methyl)cyclohexyl)acetoxy)methyl)-2-(3-(piperidin-1-yl)propanamido)propane-1,3-diyl bis(2-(diheptylcarbamoyl)cyclohexane-1-carboxylate) [TxT-5-4(6)A14]”, the “Fluc activity in the liver relative to spleen and lung” value (liver [6]) is reported as “particularly high activity confirmed in the liver” and the “Fluc activity in the liver, spleen, and lung” value (various tissues) is reported as “Fluc activity was observed in the organs, i.e., liver, spleen, and lungs”.

In the case of `CCCCC/C=C\C/C=C\CCCCCCCCOC1(OCCCCCCCC/C=C\C/C=C\CCCCC)CCN(C)CC1` [YSK05], the “ED50 in factor VII (F7) knockdown” value (factor VII (F7)) is given as 0.06 mg siRNA/kg.

For `CCCCC/C=C\C/C=C\CCCCCCCCC(CCCCCCCC/C=C\C/C=C\CCCCC)OC(=O)CCCN(C)C` [MC3, DLin-MC3-DMA, reference compound], the Pdl [1, 11] was 0.20, the “number average particle size” value [1, 11] was 51.8 nm and the ζ-average particle size [1, 11] was 83.6 nm. The ζ-potential [2, 11] was -6.8 mV, the mRNA concentration [3, 11] was 0.021 µg/µL and the mRNA encapsulation rate [3, 11] was 98.8%. The “ED50 in factor VII (F7) knockdown” value (factor VII (F7)) was 0.005 mg siRNA/kg and the pKa [5, 11] was 6.23.

For “2-(6-(didodecylamino)-2,6-dioxohexyl)-2-(3-(piperidin-1-yl)propanamido)propane-1,3-diyl bis(5-(didodecylamino)-5-oxopentanoate) [TxT-5-5A24]”, the “average particle diameter, comparison among TxT lipids” value ([1]; Example 32, Table 8, lipid nanoparticles for TTR-targeted genome editing) was “smallest average particle diameter”, the Pdl [1, 9] was 0.14 and the “number average particle size” value [1, 9] was 92.2 nm. For the same compound, the ζ-average particle size [1, 9] was 133.1 nm, the Pdl [1, 10] was 0.10 and the “number average particle size” value [1, 10] was 85.3 nm. For the same compound, the ζ-average particle size [1, 10] was 129.5 nm, the Pdl [1, 12] was 0.12 and the “number average particle size” value [1, 12] was 53.1 nm. The ζ-average particle size [1, 12] was 73.8 nm, the ζ-potential [2, 9] was -8.9 mV and the ζ-potential [2, 10] was -4.2 mV. The ζ-potential [2, 12] was -6.5 mV, the mRNA concentration [3, 9] was 0.022 µg/µL and the mRNA encapsulation rate [3, 9] was 96.5%. It also gave a mRNA concentration [3, 10] of 0.021 µg/µL, a mRNA encapsulation rate [3, 10] of 97.3% and a mRNA concentration [3, 12] of 0.541 µg/µL. The mRNA encapsulation rate [3, 12] was 98.4%, the “fluorescence of EGFP in the liver tissues” value (liver [4]) was “fluorescence of EGFP was observed” and the “gene expression in hepatocytes” value (liver [4]) was “notably high levels of gene expression”. It also gave a pKa [7] of 6.68.
